Read-outs that look alike come from different tables or passages of the source. Bridges are numbered along the chain shown (N, C = ends). Roman numbers before positions name the chains, in order. Where no end group is shown, it is not given here.
What was measured:
[1] = tested on: serum cytokines/chemokines (mouse L-308 membrane array); assay type: in vivo; settings: 0.1 nmole/g s.c., 4 h, three animals pooled
Description: At 4 h post dose, terminal blood was pooled from 3 animals per group and prepared for serum. Shown in Fig. S3 are the relative levels of cytokines/chemokines in sera in response to injections of 0.1 (orange bars) or 1.0 nmole/g (grey bars) svL4 as compared with animals injected with PBS (blue).

[2] = tested on: serum cytokines/chemokines (mouse L-308 membrane array); assay: Serum cytokine array, healthy Balb/c mice; assay type: in vivo, mouse (Balb/c)
Description: Ratios of treated vs. untreated samples obtained in a separate experiment with healthy Balb/c mice are shown in the right-hand column of Table 3 for comparison. The most significant increase in the serum of healthy mice treated with the peptide was in the amount of soluble HVEM (Herpes virus entry mediator, also designated TNFRSF14), which was a prominent protein in serum and increased approximately 10-fold within 4 h after treatment. In the tumor-bearing mice, the level of soluble HVEM in treated animals was similar to that in treated healthy mice, but the level in untreated animals was higher than that in healthy control mice.

[3] = Antigenicity assay in mouse sera; assay type: in vivo; settings: 1 nmole/g s.c., alternate days for 3 months; sera of 8 treated mice, Fig. 8
Description: The sequence of one arm of svL4 or sv6D was conjugated to keyhole limpet hemocyanin (KLH) and injected into rabbits at two week intervals (total of 3 injections) (New England Peptide, Inc., Gardner, MA). Two weeks after the final injection, sera were prepared. Mice were injected with a peptide every other day over a period of 3 months (total ~ 45 injections), blood was then collected by cardiac puncture and sera were prepared. Rabbit serum was diluted 1:10, whereas mouse serum was diluted 1:1 or 1:5 with PBS containing 0.05% Tween-20 (PBST). Sera were incubated in microtiter wells coated with protein A/G (Pierce) for 90 min. The wells were washed three times with PBST, and then incubated with 50 μL of 1 μM biotinylated svL4 or sv6D for 1 h. The wells were washed four times with PBST, incubated 1 h with 1 μg/mL streptavidin-peroxidase conjugate, and washed four times with PBST. Peroxidase activity was assayed as above under Binding Assays.
Fig. 8 Test for antigenicity of svL4 and sv6D. Anti-sera were generated in rabbits against KLH-conjugates of the sequences of svL4 or sv6D and diluted 1:10. Mouse sera were collected after alternate-day injections of svL4 over 3 months, diluted 1:1 with PBS and added to protein-A/G-coated wells. Biotinylated svL4 or sv6D was added to wells and bound peptide was detected with a streptavidin-peroxidase conjugate. […]

[4] = * control value negligible or low
[5] = healthy mice, separate experiment, three animals pooled
[6] = healthy mice, separate experiment, three animals pooled, * control value negligible or low

I: VQATQSNQHTPRGGGSKK-NH2 / II: VQATQSNQHTPRGGGSK / III: VQATQSNQHTPRGGGS / IV: VQATQSNQHTPRGGGS (amide I:17-IV:C, I:18-II:C, II:17-III:C) [svL4]
ratio treated/untreated serum CCL1 [1]: 2.5
ratio treated/untreated serum IL-1α [1]: 2.7
ratio treated/untreated serum IL-12p70 [1]: 3.5
ratio treated/untreated serum IL-16 [1]: 4
ratio treated/untreated serum IL-27 [1]: 4.5
ratio treated/untreated serum IL-28 [1]: 4.3
ratio treated/untreated serum IL-31 [1]: 3.5
ratio treated/untreated serum Lymphotactin [1]: ~ 3
ratio treated/untreated serum MIP-2/CXCL2 [1]: ~ 6
ratio treated/untreated serum Pentraxin3 [1]: ~ 4
ratio treated/untreated serum SPARC [1]: ~ 5
ratio treated/untreated serum TIMP-2 [1]: 3
ratio treated/untreated serum TLR2 [1]: 4.2
ratio treated/untreated serum sHVEM [1]: ~ 2
ratio treated/untreated serum IFN-γ [1, 4]: High^*
ratio treated/untreated serum Lymphotoxin-α [1, 4]: 12.5*
ratio treated/untreated serum TNFα [1, 4]: 45*
ratio treated/untreated serum CCL1 [2, 5]: No change
ratio treated/untreated serum IFN-γ [2, 5]: No change
ratio treated/untreated serum IL-1α [2, 5]: 0.86
ratio treated/untreated serum IL-12p70 [2, 5]: No change
ratio treated/untreated serum IL-16 [2, 5]: 0.57
ratio treated/untreated serum IL-27 [2, 5]: 0.55
ratio treated/untreated serum Lymphotactin [2, 5]: 2.6
ratio treated/untreated serum Lymphotoxin-α [2, 5]: 0.74
ratio treated/untreated serum MIP-2/CXCL2 [2, 5]: No change
ratio treated/untreated serum Pentraxin3 [2, 5]: 0.21
ratio treated/untreated serum SPARC [2, 5]: No change
ratio treated/untreated serum TIMP-2 [2, 5]: 0.45
ratio treated/untreated serum TLR2 [2, 5]: 0.37
ratio treated/untreated serum TNFα [2, 5]: 0.21
ratio treated/untreated serum sHVEM [2, 5]: 10
ratio treated/untreated serum IL-28 [2, 6]: High*
ratio treated/untreated serum IL-31 [2, 6]: High*
increase of soluble HVEM in serum ([2]; within 4 h after treatment): approximately 10 fold
antibodies that bind the peptides in mouse sera [3]: negative
